The assay deals with coronary vasospasm. The assay can be described thus: Treatment of coronary vasospasm after off pump beating coronary artery bypass grafting (angiography, case reports). Type of assay: in vivo, patient. As for the experimental part: To a patient who had been subjected to off pump beating coronary artery bypass grafting (in which a left internal thoracic artery was anastomosed to each of a left anterior descending coronary artery and a diagonal branch), during and after the operation, isosorbide dinitrate (2 to 5 mg/hour), diltiazem (1 to 2 mg/hour), nicorandil (4 to 6 mg/hour), and catecholamines (1 to 2 μg/kg per minute of dopamine and 1 to 2 μg/kg per minute of dobutamine) were continuously intravenously administered. However, after three hours of the operation, severe coronary vasospasm occurred. The coronary vasospasm occurred in a right coronary artery which was not related to the bypass operation. Isosorbide dinitrate (total of 10 mg) was administered into the coronary artery, but it had no effect on the vasospasm. Therefore, fasudil hydrochloride was dissolved in a physiological saline and then the mixture was administered into the right coronary artery for 15 minutes at a rate of 1.5 mg/minute. As a result, the coronary vasospasm was resolved (see FIG. 1). At the occurrence of the vasospasm and after the administration of isosorbide dinitrate, the right coronary artery became thin like a thread due to the vasospasm and peripheral part thereof was not illustrated. However, after the administration of fasudil hydrochloride, the peripheral part was illustrated. […] After that, fasudil hydrochloride was dissolved in the physiological saline and the mixture was continuously administered into the vein for 72 hours (tapered from 10 mg/hour).
To a patient who had been subjected to off pump beating coronary artery bypass grafting (in which a saphenous vein graft was anastomosed from an aorta to a left anterior descending coronary artery), during and after the operation, isosorbide dinitrate (1 to 5 mg/hour), diltiazem (1 to 2 mg/hour), and catecholamines (1 to 2 μg/kg per minute of dopamine, dobutamine, and norepinephrine, respectively) were continuously intravenously administered. However, after five hours of the operation, severe coronary vasospasm occurred. The coronary vasospasm occurred in a right coronary artery and a left circumflex coronary artery which were not related to the bypass operation. Isosorbide dinitrate (total of 10 mg) was administered into the right coronary artery, but it had no effect on the vasospasm. Therefore, fasudil hydrochloride was dissolved in a physiological saline and then the mixture was administered into the right coronary artery for 15 minutes at a rate of 1.5 mg/minute As a result, the coronary vasospasm was resolved (see FIG. 1). At the occurrence of the vasospasm and after the administration of isosorbide dinitrate, the distal part thereof from the portion where the vasospasm had occurred was not illustrated. However, after the administration of fasudil hydrochloride, the peripheral part was illustrated. […] After that, fasudil hydrochloride was dissolved in the physiological saline and the mixture was continuously administered into the vein for 72 hours (tapered from 10 mg/hour).
To a patient who had been subjected to off pump beating coronary artery bypass grafting (in which a right internal thoracic artery was anastomosed to a left anterior descending coronary artery and a left internal thoracic artery was anastomosed to a posterolateral branch of a left circumflex coronary artery), during the operation, isosorbide dinitrate (1 to 3 mg/hour), diltiazem (0.5 to 1 mg/hour), nicorandil (2 to 3 mg/hour), and catecholamines (1 to 5 μg/kg per minute of dopamine, 1 to 2 μg/kg per minute of dobutamine, and 1 to 2 μg/min of norepinephrine) were continuously intravenously administered. However, severe coronary vasospasm occurred immediately thereafter. The vasospasm occurred in the right coronary artery which was not related to the bypass operation and the bypass artery grafts (the right internal thoracic artery and the left internal thoracic artery) while the anastomosis region was left open. […]

Where a name gives a salt, the structure may show the parent alone.

As to `O=S(=O)(c1cccc2cnccc12)N1CCCNCC1` [fasudil hydrochloride], the “recurrence of coronary vasospasm” value (Example 1 patient, continuous intravenous administration for 72 hours (tapered from 10 mg/hour)) is listed as “did not occur again”; the “recurrence of coronary vasospasm” value (Example 2 patient, continuous intravenous administration for 72 hours (tapered from 10 mg/hour)) is “did not occur again”; the “recurrence of coronary vasospasm” value (Example 3 patient, continuous intravenous administration for 48 hours (tapered from 30 mg/hour)) is “did not occur again”. Further, the “effect on the coronary vasospasm” value is recorded as “resolved” (Example 1 patient, fasudil hydrochloride in physiological saline into the right coronary artery for 15 minutes at 1.5 mg/minute); “resolved” (Example 2 patient, fasudil hydrochloride in physiological saline into the right coronary artery for 15 minutes at 1.5 mg/minute); “resolved” (Example 3 patient, fasudil hydrochloride in physiological saline into each of the blood vessels for 15 minutes at 1.5 mg/minute).

Values taken from patent US20080242660A1, “Therapeutic Agent for Vasospasm Accompanying Bypass Operation” (ASAHI KASEI PHARMA CORPORATION, priority 2004, published 2008).
